According to patent US7119115B2, “Indazole or indole derivatives, and use thereof in human medicine and more particularly in oncology” (Aventis Pharma S.A., priority 2001, dated 2006):

Target: T1, Tubulin (Sus scrofa, UniProt P02550+P02554)
T1 construct: Tubulin is purified from pig brain according to published methods; from tissue; host or cells: pig brain
Test: Evaluation of the inhibition of tubulin polymerization (turbidimetry at 350 nm)
Type: biochemical
Settings: concentration that inhibits the rate of polymerization by 50%; pig brain tubulin 10 μM
Experimental: Briefly, the brains are ground and centrifuged in an extraction buffer. The tubulin contained in the supernatant of the extract undergoes two successive cycles of polymerization at 37° C. and depolymerization at 4° C., before being separated from the MAPs (Microtubule Associated Proteins) by chromatography on a phosphocellulose P11 column (Whatman). […] It is stored in a buffer known as RB/2 30% glycerol, the composition of which is 50 mM MES-NaOH [2-(N-morpholino)ethanesulphonic acid], pH 6.8; 0.25 mM MgCl2; 0.5 mM EGTA; 30% glycerol (v/v), 0.2 mM GTP (guanosine-5′-triphosphate).
The polymerization of tubulin to microtubules is monitored by turbidimetry as follows: the tubulin is adjusted to a concentration of 10 μM (1 mg/ml) in RB/2 30% glycerol buffer to which 1 mM GTP and 6 mM MgCl2 are added. […] The increase in the turbidity of the solution is monitored at 350 nm.
The products are dissolved at 10 mM in DMSO and added at variable concentrations (0.5 to 10 μM) to the tubulin solution before polymerization.

T1 sequence (P02550 whole entry): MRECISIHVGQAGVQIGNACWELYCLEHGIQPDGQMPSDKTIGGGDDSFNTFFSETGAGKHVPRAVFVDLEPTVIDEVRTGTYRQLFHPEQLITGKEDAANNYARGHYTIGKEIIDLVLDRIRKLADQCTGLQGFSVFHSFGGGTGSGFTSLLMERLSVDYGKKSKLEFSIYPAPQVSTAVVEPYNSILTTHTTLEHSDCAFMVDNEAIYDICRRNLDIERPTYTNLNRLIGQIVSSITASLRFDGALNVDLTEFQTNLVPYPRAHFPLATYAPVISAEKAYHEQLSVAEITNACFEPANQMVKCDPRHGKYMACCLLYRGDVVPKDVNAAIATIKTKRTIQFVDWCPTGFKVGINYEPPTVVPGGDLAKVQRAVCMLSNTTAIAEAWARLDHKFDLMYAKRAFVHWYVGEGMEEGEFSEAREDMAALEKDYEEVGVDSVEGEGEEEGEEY
T1 sequence (P02554 whole entry): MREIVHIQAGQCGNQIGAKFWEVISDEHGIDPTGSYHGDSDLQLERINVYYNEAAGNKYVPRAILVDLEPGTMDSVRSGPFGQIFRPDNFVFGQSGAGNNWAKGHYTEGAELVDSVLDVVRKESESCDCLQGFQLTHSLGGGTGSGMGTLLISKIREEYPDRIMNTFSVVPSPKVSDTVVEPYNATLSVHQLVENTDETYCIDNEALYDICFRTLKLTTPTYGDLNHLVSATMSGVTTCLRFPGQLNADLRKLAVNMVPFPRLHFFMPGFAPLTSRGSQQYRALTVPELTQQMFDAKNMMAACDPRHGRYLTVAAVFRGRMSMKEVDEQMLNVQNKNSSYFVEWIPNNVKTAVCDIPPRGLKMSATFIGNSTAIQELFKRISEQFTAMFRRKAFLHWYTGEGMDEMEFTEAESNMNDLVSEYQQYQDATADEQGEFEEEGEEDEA

| IC50 | SMILES |
| --- | --- |
| 3 µM | ON=C(c1n[nH]c2c1C=CC(c1ccccc1)(c1ccccc1)C2)C1CC1 (single isomer, unassigned) [Example 6-1B, cyclopropyl(6,6-diphenyl-6,7-dihydro-1H-indazol-3-yl)methanone oxime] |
| 3 µM | C=CCON=C(c1n[nH]c2c1C=CC(c1ccccc1)(c1ccccc1)C2)C1CCC1 (single isomer, unassigned) [Example 6-5, Cyclobutyl(6,6-diphenyl-6,7-dihydro-1H-indazol-3-yl)methanone O-allyloxime] |
| 1.5 µM | CCOC(=O)c1n[nH]c2c1C=CC(c1ccccc1)(c1ccc(F)cc1)C2 (single isomer, unassigned) [Example 10-3C, ethyl 6,6-(4-fluorophenyl)-6-phenyl-6,7-dihydro-1H-indazole-3-carboxylate] |
| 0.8 µM | O=C(c1n[nH]c2c1C=CC(c1ccccc1)(c1ccc(F)cc1)C2)C1CC1 (single isomer, unassigned) [Example 10-4B, cyclopropyl[6-(4-fluorophenyl)-6-phenyl-6,7-dihydro-1H-indazol-3-yl]methanone] |
| 1.5 µM | O=C(c1n[nH]c2c1C=CC(c1ccccc1)(c1ccc(F)cc1)C2)C1CC1 (single isomer, unassigned) [Example 10-4C, cyclopropyl[6-(4-fluorophenyl)-6-phenyl-6,7-dihydro-1H-indazol-3-yl]methanone] |
| 6 µM | ON=C(c1n[nH]c2c1C=CC(c1ccccc1)(c1ccc(F)cc1)C2)C1CC1 (single isomer, unassigned) [Example 10-5B] |
| 1.5 µM | O/N=C(/c1n[nH]c2c1C=CC(c1ccccc1)(c1ccc(F)cc1)C2)C1CC1 (single isomer, unassigned) [Example 10-5D, cyclopropyl[6-(4-fluorophenyl)-6-phenyl-6,7-dihydro-1H-indazol-3-yl]methanone oxime] |
| 6 µM | O/N=C(\c1n[nH]c2c1C=CC(c1ccccc1)(c1ccc(F)cc1)C2)C1CC1 (single isomer, unassigned) [Example 10-5E, cyclopropyl[6-(4-fluorophenyl)-6-phenyl-6,7-dihydro-1H-indazol-3-yl]methanone oxime] |
| 3.7 µM | CC(C)OC(=O)c1[nH]nc2c1C=CC(c1ccccc1)(c1ccccc1)C2 [Example 2-1, Isopropyl 6,6-diphenyl-6,7-dihydro-2H-indazole-3-carboxylate] |
| 1.25 µM | COC(=O)c1[nH]nc2c1C=CC(c1ccccc1)(c1ccccc1)C2 [Example 2-2, Methyl 6,6-diphenyl-6,7-dihydro-2H-indazole-3-carboxylate] |
| 4.5 µM | O=C(c1n[nH]c2c1C=CC(c1ccccc1)(c1ccccc1)C2)N1CC1 [Example 3-4, Aziridin-1-yl(6,6-diphenyl-6,7-dihydro-1H-indazol-3-yl)methanone] |
| 23 µM | N#Cc1n[nH]c2c1C=CC(c1ccccc1)(c1ccccc1)C2 [Example 4, 6,6-Diphenyl-6,7-dihydro-1H-indazole-3-carbonitrile] |
| 12.5 µM | O=C(c1ccccc1)c1n[nH]c2c1C=CC(c1ccccc1)(c1ccccc1)C2 [Example 5-3, (6,6-Diphenyl-6,7-dihydro-1H-indazol-3-yl)phenylmethanone] |
| 7 µM | O=C(c1cc[nH]c1)c1n[nH]c2c1C=CC(c1ccccc1)(c1ccccc1)C2 [Example 5-4, (6,6-Diphenyl-6,7-dihydro-1H-indazol-3-yl)-(1H-pyrrol-3-yl)methanone] |
| 1.2 µM | C=CCO/N=C(/c1n[nH]c2c1C=CC(c1ccccc1)(c1ccccc1)C2)C1CC1 [Example 6-6B, cyclopropyl(6,6-diphenyl-6,7-dihydro-1H-indazol-3-yl)methanone O-allyloxime] |
| 1.8 µM | COCCO/N=C(\c1n[nH]c2c1C=CC(c1ccccc1)(c1ccccc1)C2)C1CC1 [Example 6-7A, cyclopropyl(6,6-diphenyl-6,7-dihydro-1H-indazol-3-yl)methanone O-(2-methoxyethyl)oxime] |
| 6 µM | COCCO/N=C(/c1n[nH]c2c1C=CC(c1ccccc1)(c1ccccc1)C2)C1CC1 [Example 6-7B, cyclopropyl(6,6-diphenyl-6,7-dihydro-1H-indazol-3-yl)methanone O-(2-methoxyethyl)oxime] |

| IC50 | SMILES |
| --- | --- |
| 1.3 µM | C1=CC(c2ccccc2)(c2ccccc2)Cc2[nH]nc(/C(=N\OCc3ccccc3)C3CC3)c21 [Example 6-8A, cyclopropyl(6,6-diphenyl-6,7-dihydro-1H-indazol-3-yl)methanone O-benzyloxime] |
| 10 µM | C1=CC(c2ccccc2)(c2ccccc2)Cc2[nH]nc(/C(=N/OCc3ccccc3)C3CC3)c21 [Example 6-8B, cyclopropyl(6,6-diphenyl-6,7-dihydro-1H-indazol-3-yl)methanone O-benzyloxime] |
| 1.5 µM | O=[N+]([O-])c1ccc(CO/N=C(\c2n[nH]c3c2C=CC(c2ccccc2)(c2ccccc2)C3)C2CC2)cc1 [Example 6-9A, cyclopropyl(6,6-diphenyl-6,7-dihydro-1H-indazol-3-yl)methanone O-(4-nitrobenzyl)oxime] |
| 2.5 µM | O=[N+]([O-])c1ccc(CO/N=C(/c2n[nH]c3c2C=CC(c2ccccc2)(c2ccccc2)C3)C2CC2)cc1 [Example 6-9B, cyclopropyl(6,6-diphenyl-6,7-dihydro-1H-indazol-3-yl)methanone O-(4-nitrobenzyl)oxime] |
| 4.5 µM | CN(C)CCO/N=C(\c1n[nH]c2c1C=CC(c1ccccc1)(c1ccccc1)C2)C1CC1 [Example 6-10A, cyclopropyl(6,6-diphenyl-6,7-dihydro-1H-indazol-3-yl)methanone O-(2-dimethylaminoethyl)oxime] |
| 12 µM | CN(C)CCO/N=C(/c1n[nH]c2c1C=CC(c1ccccc1)(c1ccccc1)C2)C1CC1 [Example 6-10B, cyclopropyl(6,6-diphenyl-6,7-dihydro-1H-indazol-3-yl)methanone O-(2-dimethylaminoethyl)oxime] |
| 1 µM | FCCO/N=C(\c1n[nH]c2c1C=CC(c1ccccc1)(c1ccccc1)C2)C1CC1 [Example 6-11A, cyclopropyl(6,6-diphenyl-6,7-dihydro-1H-indazol-3-yl)methanone O-(2-fluoroethyl)oxime] |
| 1.3 µM | FCCO/N=C(/c1n[nH]c2c1C=CC(c1ccccc1)(c1ccccc1)C2)C1CC1 [Example 6-11B, cyclopropyl(6,6-diphenyl-6,7-dihydro-1H-indazol-3-yl)methanone O-(2-fluoroethyl)oxime] |
| 6 µM | Cc1ccc(S(=O)(=O)n2nc(N)c3c2CC(c2ccccc2)(c2ccccc2)C=C3)cc1 [Example 7-1, 6,6-Diphenyl-1-(4-toluenesulphonyl)-6,7-dihydro-1H-indazol-3-ylamine] |
| 1 µM | C1=CC(c2ccccc2)(c2ccccc2)Cc2[nH]nc(-c3ccccc3)c21 [Example 8-2, 3,6,6-Triphenyl-6,7-dihydro-1H-indazole] |
| 6 µM | C1=CC(c2ccccc2)(c2ccccc2)Cc2[nH]nc(-c3cccnc3)c21 [Example 8-3, 6,6-Diphenyl-3-pyrid-3-yl-6,7-dihydro-1H-indazole] |
| 1.2 µM | C1=CC(c2ccccc2)(c2ccccc2)Cc2[nH]nc(-c3ccsc3)c21 [Example 8-4, 6,6-Diphenyl-3-thiophen-3-yl-6,7-dihydro-1H-indazole] |
| 15 to 20 µM | CCOC(=O)c1n[nH]c2c1C=CC(c1ccc(OC)cc1)(c1ccc(OC)cc1)C2 [Example 10-1, Ethyl 6,6-bis(4-methoxyphenyl)-6,7-dihydro-1H-indazole-3-carboxylate] |
| 1 µM | CCOC(=O)c1n[nH]c2c1C=CC(c1ccc(F)cc1)(c1ccc(F)cc1)C2 [Example 10-6, Ethyl 6,6-bis(4-fluorophenyl)-6,7-dihydro-1H-indazole-3-carboxylate] |
| 6.5 µM | CCOC(=O)c1[nH]cc2c1C=CC(c1ccccc1)(c1ccccc1)C2 [Example 11, Ethyl 5,5-diphenyl-4,5-dihydro-2H-isoindole-1-carboxylate] |
| 1.5 µM | CCOC(=O)c1n[nH]c2c1C=CC(c1ccccc1)(c1ccccc1)C2C (stereo not drawn) [Example 13, Ethyl 7-methyl-6,6-diphenyl-6,7-dihydro-1H-indazole-3-carboxylate] |

| SMILES | IC50 |
| --- | --- |
| CCOC(=O)c1n[nH]c2c1C=CC(C)(c1ccccc1)C2 (racemic) [Example 9-1, Ethyl 6-(R,S)-6-methyl-6-phenyl-6,7-dihydro-1H-indazole-3-carboxylate] | 18 µM |
| CCOC(=O)c1n[nH]c2c1C=CC(c1ccccc1)(c1ccc(OC)c(OC)c1)C2 (racemic) [Example 10-2, Ethyl 6-(R,S)-6-(3,4-dimethoxyphenyl)-6-phenyl-6,7-dihydro-1H-indazole-3-carboxylate] | 4.5 µM |
| CCOC(=O)c1n[nH]c2c1C=CC(C)(c1ccccc1)C2 (single isomer, unassigned) [Example 9-2, ethyl 6-methyl-6-phenyl-6,7-dihydro-1H-indazole-3-carboxylate] | 15 µM |
